# Where “and” joins values, the source holds several entries; their conditions need not be identical. Equal values may be shown once.
# How the values were obtained:
# [1] = tested on: bloodstream trypomastigotes form Y strain of T. cruzi; experiment: In vitro trypanocidal assay; format: cell-based; conditions: Trypanosoma cruzi, read-out: IC50/24 h (concentration that produces 50% lysis of the parasites), trypomastigote forms, 37 °C
# Method: In vitro trypanocidal assay - To accomplishment of the experiments were used bloodstream trypomastigotes form Y strain of T. cruzi, obtained at the peak of the parasitemia (7th day after infection) of infected Swiss albino mice.[34] The trypomastigotes underwent a differential centrifugation process for the separation of erythrocytes, leukocytes and concentration of the parasites in the plasma, and the purified parasites were resuspended in RPMI medium and cell concentration was determined by counting in the Neubauer chamber. Stock solution of each compound was prepared in dimethyl sulfoxide (DMSO), and the assays were performed in Dulbecco’s modified Eagle medium in 96-well plates. In the first well was placed twice the highest desired concentration of each compound, in a final volume of 200 μL, in the following wells were added 100 μL of medium supplemented with 10% foetal bovine serum (FBS) and 2% L-glutamine. Subsequently, 100 μL of parasite suspension (10^6 trypomastigotes) were added, resulting in a final concentration of 5 x 10^6 parasites/mL, incubated for 24 h at 37 °C under a 5% CO2 atmosphere and quantified in Neubauer’s chamber by light microscopy. […] At least four independent experiments were performed and the mean and standard deviation were calculated. Benznidazole (1) was used as a reference drug. The experiments were performed in accordance with the guidelines established by the Oswaldo Cruz Foundation Committee of Ethics for the Use of Animals (L 038/2018).
# [2] = tested on: whole human blood cells (WHBC); experiment: In vitro alkaline comet assay (CA) in whole human blood cells; format: cell-based
# Method: Methyl methane-sulfonate (MMS) (160 μM) (Sigma-Aldrich) was used as a positive control. […] Slides were prepared, lysed (pH 10; 4-5 °C) and processed as described earlier,[32] using a time of alkali denaturation of 20 min and electrophoresis (0.86 V/cm and 300 mA) of 20 min at a pH > 13. […] The DNA damage was expressed as percentage of cells into four classes and as arbitrary units (AU) according to the formula: AU = (0 […] 3), where n = the number of cells analysed in each class. The total DNA damage score in AU (TAU) for 200 cells can range from 0 TAU (200 undamaged cells) to 600 TAU (all cells maximally damaged).
# [3] = tested on: whole human blood cells (WHBC); experiment: In vitro cytokinesis-block micronucleus assay (CBMN) with whole human blood cells; conditions: for MN formation compared to solvent-control: concentration range analysed; for result in the CBMN: overall call; for MNC in 2,000 BNC: positive control
# Method: In vitro cytokinesis-block micronucleus assay (CBMN) with whole human blood cells (WHBC) - Heparinised WHBC samples were obtained by venipuncture from volunteers as described above. […] WHBC cultures exposed to mitomycin C (MMC) (1.0 µg/mL in water) (Bristol, USA) for 2 h or to N-deacetyl-N-methylcolchicine in water (Demecolcine: Sigma-Aldrich) 0.02 µg/mL for 28 h were used as positive control cultures. After the treatment, the WHBC cultures were centrifuged (900 rpm, 10 min) and washed with 5 mL PBS. […] CytB has cytokinesis-block activity leading to the formation of binucleate cells. […] The fixed cell suspension was dropped on a clean glass slide and the slide was air-dried on a heating plate (60 °C). Air-dried slides were stained with 60 µg/mL acridine orange in Sörensen buffer (0.03 M KH2PO4, 0.03 M Na2HPO4) for 3s, then they were embedded in distilled water and covered with a coverslip. MN showing bright green fluorescence were analysed using a fluorescence microscope at 400 X magnification. MN were scored in 2,000 binucleated cells (BNC) for culture and the number of the micronucleate cells (MNC) in 2,000 BNC was determined. Cytotoxicity was measured using the cytokinesis-block proliferation index (CBPI) and the replication index (RI) which were calculated from 500 cells. The CBPI indicates the average number of nuclei per cell, and may be used to calculate cell proliferation. The RI indicates the relative number of cell cycles per cell during the period of exposure to cytoB in treated cultures compared to control cultures and can be used to calculate the % cytostasis. CBPI was calculated according to the formula: CBPI = [(No. mononucleate cells) + (2 x No. binucleate cells) + (3 x No. multinucleate cells)] / N, where N indicates the total number of cells scored. RI (%) was calculated according to the formula:
# RI %=((No. binucleate cells) + (2 x No. multinucleate cells)) ÷ (Total number of cells)T/((No. binucleate cells) + (2 x No. multinucleate cells)) ÷ (Total number of cells)C x 100
# where T indicates treated cultures and C control cultures
# Cytotoxicity was evidenced in the occurrence of reduction in CBPI or RI of cultures treated by test substances when compared to control cultures. The measurement of cytotoxicity was used to select the concentrations of the test substance to be analysed for the presence of MN. […] However, it was adopted in this work as the maximum concentration in CBMN one that induced a proliferation inhibition not exceeding about 50% established by ICH S2 (R1) for lymphocyte cultures.
# The chi-square test for trend was performed to analyse if the increase of MNC was concentration-related.[30]
# [4] = tested on: whole human blood cells (WHBC); experiment: Cytotoxicity assay (FDA/EtBr) in whole human blood cells; conditions: for percentage decrease in cell viability: 2 h, 37 °C; for lethality variation range: 2 h at 37 °C, compared to solvent-control
# Method: In vitro treatment and cytotoxicity assay in whole human blood cells (WHBC) - Heparinised WHBC was obtained by venipuncture from healthy young non-smoking volunteers with no known recent exposures to genotoxic chemicals or radiation immediately before the assays. […] The cytotoxicity assay aims to establish the degree of cell viability after treatment with nitroimidazoles to define the ranges concentrations to be tested in the in vitro CA. Cell viability was determined at the end of the treatment using the fluorescein diacetate (FDA)/ethidium bromide (EtBr)-assay, in which viable cells are labelled in green, while dead ones display orange-stained nuclei. WHBC (50 μL) was mixed with an equal volume of the freshly prepared staining solution consisting of 30 μg/mL FDA plus 8 μg/mL EtBr in phosphate-buffered saline (PBS). Samples (50 μL) were spread on a microscope slide and covered with a coverslip and observed using a fluorescence microscope. Two hundred cells were analysed for each treatment.[32] The research project involving the use of human blood samples was approved by the Committee on Ethics in Research with Human Beings - CEP Fiocruz/IOC (CAAE: 41684815.3.0000.5248) under the consolidated opinion of CEP No. 1066061.
# Salmonella typhimurium = conditions: cited from earlier work
# Chagas disease = conditions: cited from earlier work
# [5] = 10,000 μM, relative to solvent-control
smiles,measurement,setting,value
Cn1cnc([N+](=O)[O-])c1-n1cccn1 [Compound 6],IC50,[1],> 500 µM
same,result in the in vitro CA,[2],positive
same,concentration with significant (p < 0.05) DNA damage,"[2]; human, 2 h","6,400 µM"
same,cells with class 1 DNA damage,"[2]; human, 2 h, 6400 µM",10.5%
same,CBPI,"[3]; 150 µM, 4 h",1.184
same,NMNC/2000 binucleated cells,"[3]; 150 µM, 4 h",32
same,RI (%),"[3]; 150 µM, 4 h",148%
same,CBPI,"[3]; 640 µM, 4 h",1.204
same,NMNC/2000 binucleated cells,"[3]; 640 µM, 4 h",12
same,RI (%),"[3]; 640 µM, 4 h",132%
same,CBPI,"[3]; 1,600 µM, 4 h",1.134
same,NMNC/2000 binucleated cells,"[3]; 1,600 µM, 4 h",16
same,RI (%),"[3]; 1,600 µM, 4 h",114%
same,CBPI,"[3]; 4,000 µM, 4 h",1.068
same,NMNC/2000 binucleated cells,"[3]; 4,000 µM, 4 h",12
same,RI (%),"[3]; 4,000 µM, 4 h",56%
same,CBPI,"[3]; 10,000 µM, 4 h",1.036
same,RI (%),"[3]; 10,000 µM, 4 h",24%
same,maximum concentration used in MN analysis (inducing in the maximum 50% reduction of CBPI or RI),"[3]; 4 h, relative to solvent-control","4,000 μM"
same,MN formation compared to solvent-control,[3]; 4 h,did not induce a significant increase in MN formation
same,result in the CBMN,[3],negative
same,percentage decrease in cell viability,[4]; 149 µM,0%
same,percentage decrease in cell viability,[4]; 238 µM,4.0%
same,percentage decrease in cell viability,[4]; 382 µM,0%
same,percentage decrease in cell viability,[4]; 610 µM,0%
same,percentage decrease in cell viability,"[4]; 1,562 µM",0%
same,percentage decrease in cell viability,"[4]; 2,500 µM",6%
same,percentage decrease in cell viability,"[4]; 4,000 µM",0%
same,percentage decrease in cell viability,"[4]; 6,400 µM",0%
same,lethality variation range,"[4]; 149-6,400 µM",1-4%
same,concentration with cytotoxic activity,Salmonella typhimurium; TA98,50 µg/mL
same,concentration with mutagenicity in TA100,"Salmonella typhimurium; TA100, absence and presence of S9 mixture, highest tested concentration",50 µg/mL
same,concentration range with cytotoxic activity,Salmonella typhimurium; TA100 and TA1535 strains,1.0 to 50 µg/mL
"COS(C)(=O)=O [MMS, Methyl methane-sulfonate, reference compound]",cells with class 3 DNA damage,[2]; 160 µM,87.7%
same,TAU mean value (total DNA damage score),"[2]; 160 μM, positive control, p < 0.001 vs control",554.2 ± 9.9 TAU
"O=C(Cn1ccnc1[N+](=O)[O-])NCc1ccccc1 [Benznidazole, benznidazole]",serological cure,Chagas disease; adults with late chronic infection,5-20%
same,digestive intolerance,Chagas disease; adverse event,5-15%
same,"general symptoms such as anorexia, asthenia, headache, and sleep disturbances",Chagas disease; adverse event,40%
same,skin rash,Chagas disease; adverse event,29-50%
same,discontinuation of treatment,Chagas disease; due to adverse events,9-29%
same,IC50,[1],8.8 ± 1.1 µM
Cn1cnc([N+](=O)[O-])c1Nc1nnc(C(F)(F)F)[nH]1 [Compound 5],IC50,[1],> 500 µM
same,result in the in vitro CA,[2],positive
same,concentrations at which a significant (p < 0.05) genotoxic effect was observed,"[2]; human, 2 h",> 610 µM
same,CBPI,"[3]; 150 µM, 4 h",1.310
same,NMNC/2000 binucleated cells,"[3]; 150 µM, 4 h",20
same,RI (%),"[3]; 150 µM, 4 h",151%
same,CBPI,"[3]; 640 µM, 4 h",1.228
same,NMNC/2000 binucleated cells,"[3]; 640 µM, 4 h",8
same,RI (%),"[3]; 640 µM, 4 h",111%
same,CBPI,"[3]; 1,600 µM, 4 h",1.192
same,NMNC/2000 binucleated cells,"[3]; 1,600 µM, 4 h",20
same,RI (%),"[3]; 1,600 µM, 4 h",95%
same,CBPI,"[3]; 4,000 µM, 4 h",1.340
same,NMNC/2000 binucleated cells,"[3]; 4,000 µM, 4 h",24
same,RI (%),"[3]; 4,000 µM, 4 h",167%
same,CBPI,"[3]; 10,000 µM, 4 h",1.152
same,NMNC/2000 binucleated cells,"[3]; 10,000 µM, 4 h",36
same,RI (%),"[3]; 10,000 µM, 4 h",78%
same,reduction of CBPI,[3]; [5],36%
same,reduction of RI,[3]; [5],22%
same,MN formation compared to solvent-control,[3]; 4 h,did not induce a significant increase in MN formation
same,result in the CBMN,[3],negative
same,percentage decrease in cell viability,[4]; 149 µM,0%
same,percentage decrease in cell viability,[4]; 238 µM,0%
same,percentage decrease in cell viability,[4]; 382 µM,0%
same,percentage decrease in cell viability,[4]; 610 µM,0%
same,percentage decrease in cell viability,"[4]; 1,562 µM",0%
same,percentage decrease in cell viability,"[4]; 2,500 µM",0%
same,percentage decrease in cell viability,"[4]; 4,000 µM",2.0%
same,percentage decrease in cell viability,"[4]; 6,400 µM",1.0%
same,percentage decrease in cell viability,"[4]; 10,000 µM",2.0%
same,lethality variation range,"[4]; 149-10,000 µM",1-4%
"CN[C@H]1CCc2cc(OC)c(OC)c(OC)c2-c2ccc(OC)c(=O)cc21 [Demecolcine, N-deacetyl-N-methylcolchicine, reference compound]","MNC in 2,000 BNC","[3]; 0.02 μg/mL, 28 h",37 and 42 and 30
"CO[C@@]12[C@H](COC(N)=O)C3=C(C(=O)C(C)=C(N)C3=O)N1C[C@@H]1N[C@@H]12 [MMC, mitomycin C, reference compound]","MNC in 2,000 BNC","[3]; 1.0 μg/mL, 2 h",38 and 56 and 40
"CC1CS(=O)(=O)CCN1/N=C/c1ccc([N+](=O)[O-])o1 (centres unmarked) [Nfx, nifurtimox]",discontinuation of the treatment,Chagas disease; adults with chronic infection,14-75%
same,frequency of adverse effects,Chagas disease; adults with chronic infection,43.0-97.5%

# From publication PMC6598759, “In vitro genotoxicity of nitroimidazoles as a tool in the search of new trypanocidal agents” (Memórias do Instituto Oswaldo Cruz, 2019)
